Data published in ChEMBL document CHEMBL5505987 (Eur J Med Chem, 2024).
pIC50: −log10 of the molar value. Activity calls are given as the source filed them.

Legend:
MDA-MB-231 [1] = experiment: Induction of mitochondrial membrane potential loss in human MDA-MB-231 cells assessed as increase in fluorescence intensity by JC-1 monomer assay; type: functional, cell-based; settings: dose 2-4 µM
MDA-MB-231 [2] = experiment: Anti-proliferative activity against human MDA-MB-231 cells assessed as cell viability measured after 24 hrs by MTT assay; type: functional, cell-based; settings: dose 1-8 µM
MDA-MB-231 [3] = experiment: Anti-metastatic activity in human MDA-MB-231 cells assessed as increase in E-cadherin protein level at 1 to 4 uM by Western blotting analysis; type: functional, cell-based; settings: dose 1-4 µM
MDA-MB-231 [4] = experiment: Induction of cell cycle arrest in human MDA-MB-231 cells assessed as reduction in CDK6 expression at 1 to 4 uM measured after 24 hrs by immunoblotting assay; type: functional, cell-based; settings: dose 1-4 µM
MDA-MB-231 [5] = experiment: Induction of cell cycle arrest in human MDA-MB-231 cells assessed as reduction in cyclin E1 expression at 1 to 4 uM measured after 24 hrs by immunoblotting assay; type: functional, cell-based; settings: dose 1-4 µM
4T1 [6] = experiment: Induction of apoptosis in mouse 4T1 cells assessed as increase in apoptotic rate at 6 uM incubated for 24 hrs by Annexin V-FITC/PI double staining by flow cytometry; type: functional
MDA-MB-231 [7] = experiment: Induction of apoptosis in human MDA-MB-231 cells assessed as increase in Bax expression at 1 to 4 uM incubated for 24 hrs by Western blotting analysis; type: functional, cell-based; settings: dose 1-4 µM
MDA-MB-231 [8] = experiment: Induction of cell cycle arrest in human MDA-MB-231 cells assessed as accumulation of cells at G0/G1 phase at 4 uM measured after 24 hrs by PI staining by flow cytometry; type: functional
HeLa = experiment: Cytotoxicity against human HeLa cells assessed as cell viability by MTT assay; type: functional, cell-based
4T1 [9] = experiment: Induction of cell cycle arrest in mouse 4T1 cells assessed as accumulation of cells at G0/G1 phase at 6 uM measured after 24 hrs by PI staining by flow cytometry; type: functional
4T1 [10] = experiment: Induction of DNA damage in mouse 4T1 cells assessed as increase in gamma-H2AX focal expression at 2 to 4 uM by immunofluorescence staining assay; type: functional, cell-based; settings: dose 2-4 µM
MDA-MB-231 [11] = experiment: Induction of apoptosis in human MDA-MB-231 cells assessed as increase in apoptotic rate at 1 uM incubated for 24 hrs by Annexin V-FITC/PI double staining by flow cytometry; type: functional
4T1 [12] = experiment: Antimigratory activity against mouse 4T1 cells assessed as decrease in migration of tumor cells into scratching region at 8 to 10 uM incubated for 12 to 24 hrs by Wound healing assay; type: functional, cell-based; settings: dose 8-10 µM, time 12-24 hrs
MDA-MB-231 [13] = experiment: Anti-metastatic activity in human MDA-MB-231 cells assessed as decrease in ZEB1 protein level at 1 to 4 uM by Western blotting analysis; type: functional, cell-based; settings: dose 1-4 µM
MDA-MB-231 [14] = experiment: Anti-tumor activity against human MDA-MB-231 cells assessed as change in TGF-beta1/Smad signaling pathway by measuring fluorescence intensity of p-Smad2 level at 2 to 4 uM after 24 hrs incubation by immunofluorescence staining assay; type: functional, cell-based; settings: dose 2-4 µM
MDA-MB-231 [15] = experiment: Anti-tumor activity against human MDA-MB-231 cells assessed as change in TGF-beta1/Smad signaling pathway by measuring fluorescence intensity of TGF-beta1 level at 2 to 4 uM after 24 hrs incubation by immunofluorescence staining assay; type: functional, cell-based; settings: dose 2-4 µM
4T1 [16] = experiment: Induction of apoptosis in mouse 4T1 cells assessed as increase in apoptotic rate incubated for 24 hrs in presence of SB-431542 TGF-beta signaling inhibitor by Annexin V-FITC/PI double staining by flow cytometry; type: functional, cell-based
MDA-MB-231 [17] = experiment: Anti-tumor activity against human MDA-MB-231 cells assessed as change in TGF-beta1/Smad signaling pathway by measuring fluorescence intensity of p-Smad3 level at 2 to 4 uM after 24 hrs incubation by immunofluorescence staining assay; type: functional, cell-based; settings: dose 2-4 µM
4T1 [18] = experiment: Inhibition of colony formation in mouse 4T1 cells assessed as reduction in colony formation treated for 10 days medium refreshed every two days by crustal violet based assay; type: functional, cell-based; settings: time 10.0 day
4T1 [19] = experiment: Anti-proliferative activity against mouse 4T1 cells assessed as cell viability measured after 24 hrs by MTT assay; type: functional, cell-based; settings: dose 1-8 µM
MDA-MB-231 [20] = experiment: Anti-tumor activity against human MDA-MB-231 cells assessed as decrease in cell viability at 8 uM incubated for 24 hrs in presence of SB-431542 TGF-beta signaling inhibitor by MTT assay; type: functional, cell-based
MDA-MB-231 [21] = experiment: Reduction of ATP level in human MDA-MB-231 cells incubated for 24 hrs by colorimetric based ATP Content Assay Kit; type: functional, cell-based; settings: dose 1-4 µM
A549 = experiment: Cytotoxicity against human A549 cells assessed as cell viability by MTT assay; type: functional, cell-based
MDA-MB-231 [22] = experiment: Anti-tumor activity against human MDA-MB-231 cells assessed as change in TGF-beta1/Smad signaling pathway by measuring increase in p-Smad2 level after 24 hrs incubation by Western blot analysis; type: functional, cell-based; settings: dose 1-4 µM
4T1 [23] = experiment: Induction of apoptosis in mouse 4T1 cells assessed as increase in apoptotic rate at 1.5 uM incubated for 24 hrs by Annexin V-FITC/PI double staining by flow cytometry; type: functional
4T1 [24] = experiment: Reduction of ATP level in mouse 4T1 cells incubated for 24 hrs by colorimetric based ATP Content Assay Kit; type: functional, cell-based; settings: dose 1-4 µM
MDA-MB-231 [25] = experiment: Induction of cell cycle arrest in human MDA-MB-231 cells assessed as upregulation of p21 protein expression at 1 to 4 uM measured after 24 hrs by immunoblotting assay; type: functional, cell-based; settings: dose 1-4 µM
MDA-MB-231 [26] = experiment: Induction of cell cycle arrest in human MDA-MB-231 cells assessed as reduction in cyclin D1 expression at 1 to 4 uM measured after 24 hrs by immunoblotting assay; type: functional, cell-based; settings: dose 1-4 µM
MDA-MB-231 [27] = experiment: Induction of ROS production in human MDA-MB-231 cells at 1 to 4 uM incubated for 24 hrs by flow cytometry; type: functional, cell-based; settings: dose 1-4 µM
MDA-MB-231 [28] = experiment: Anti-invasive activity in human MDA-MB-231 cells assessed as reduction in cell invasion incubated for 24 hrs by Transwell assay; type: functional, cell-based; settings: dose 3-6 µM

O=C1C[C@@H](c2ccccc2)Oc2cc(O)c([C@H](/C=C/C[C@@H](O)CCc3ccccc3)c3ccccc3)c(O)c21
6.84%: Activity (MDA-MB-231 [11]) | Activity (4T1 [23])
5.66: pIC50 (HeLa)
71.78%: Activity (MDA-MB-231 [8])
inactive: Activity (4T1 [16]) | Activity (MDA-MB-231 [20])
5.49: pIC50 (A549)
48.24%: Activity (4T1 [6])
78.34%: Activity (4T1 [9])
active: Activity (MDA-MB-231 [1]) Dose-Dependent Effect | Activity (MDA-MB-231 [2]) Dose-Dependent Effect | Activity (MDA-MB-231 [3]) | Activity (MDA-MB-231 [4]) | Activity (MDA-MB-231 [5]) | Activity (MDA-MB-231 [7]) | Activity (4T1 [10]) | Activity (4T1 [12]) | Activity (MDA-MB-231 [13]) | Activity (MDA-MB-231 [14]) | Activity (MDA-MB-231 [15]) | Activity (MDA-MB-231 [17]) | inhibition (4T1 [18]) Dose-Dependent Effect | Activity (4T1 [19]) Dose-Dependent Effect | inhibition (MDA-MB-231 [21]) | Activity (MDA-MB-231 [22]) Dose-Dependent Effect | inhibition (4T1 [24]) | Activity (MDA-MB-231 [25]) | Activity (MDA-MB-231 [26]) | Activity (MDA-MB-231 [27]) | Activity (MDA-MB-231 [28]) Dose-Dependent Effect
